Measured values as given in patent publication US20080249154A1, “Preventive and/or Therapeutic Agent For Disease In Which Mitochondrial Benzodiazephine Receptor Participates” (ONO PHARMACEUTICAL CO., LTD., priority 2003, published 2008).

Biological target: T1, MBR (mitochondrial benzodiazepine receptor) (Rattus norvegicus, UniProt P16257)
T1 construct: from tissue; host or cells: male Wistar rat whole brain with cerebellum removed, crude membrane pellet
Experiment: Receptor binding experiment: [3H]PK11195 competition binding, rat brain membrane preparation
Conditions: [3H]PK11195 0.5 or 1 nmol/L, 1 hour at room temperature, calculated by Cheng and Prusoff formula from KD and IC50, read-out: Ki value (inhibition constant)
Procedure: The affinity of the compounds in the present invention to MBR was determined using rat brain membrane preparation. In addition, the measurement in the present invention was improved the accuracy of measurement and the sensitivity of measurement for evaluating the compounds in the present invention as follows. After male Wister rats were decapitated to extirpate the whole brain and cerebellums were removed. They were homogenized in ice-cold 50 mmol/L Tris-HCL buffer solution (pH7.4), centrifuged and the obtained pellets were washed. The pellets resuspended and adjusted to about 1 mg/mL were used as rat brain membrane preparations for binding assay. The binding assay were experimented using [^3H]PK11195 as a MBR selective ligand. […]
To determine the amount of total binding in saturation binding experiment, membrane preparations, various concentrations of [^3H]PK11195, final concentration: 0.5 vol % dimethylsulfoxide (DMSO) and 50 mmol/L Tris-HCL buffer solution (pH7.4) were mixed (total volume 200 μL) and were incubated for 1 hour at room temperature. […] The filter was dried and then the radioactivity on the filter was measured by liquid scintillation counter. The data obtained by the binding experiments were Scatchard analyzed using analysis software, KELL (Ver.6, BIOSOFT) and the dissociation constant (KD value) was determined. […]

- Ki: 99 nM
SMILES: O=C(CCc1ccccc1)Nc1c2c(nn1-c1ccc(Cl)cc1)CSC2 [Example 8(8), N-[2-(4-chlorophenyl)-2,6-dihydro-4H-thieno[3,4-c]pyrazol-3-yl]-3-phenylpropanamide]
